The text below walks through data of patent US7977374B2, “Thiophene and thiazole substituted trifluoroethanone derivatives as histone deacetylase (HDAC) inhibitors” (Istituto Di Ricerche Di Biologia Molecolare P. Angeletti SPA, priority 2005, dated 2011).

Where two headings read alike, the source gives them in different places.

What all share (type): biochemical
For one experiment, the target named is HDAC 1 (Homo sapiens, UniProt Q13547). In words: HDAC1 activity, assays described on pages 104 to 106 of WO 2006/061638.
The next experiment addresses T1, HDAC 4 (Homo sapiens, UniProt P56524).
T1 construct: The His-tagged HDAC 4, wild-type catalytic domain, was expressed in E. coli; His tag; made in house; host or cells: E. coli BL21 Star (DE3)
In words: HDAC 4 Assay.

In the next experiment the target is T2, HDAC 6 (Homo sapiens, UniProt Q9UBN7).
T2 construct: made in house
T2 sequence (Q9UBN7 1-1215): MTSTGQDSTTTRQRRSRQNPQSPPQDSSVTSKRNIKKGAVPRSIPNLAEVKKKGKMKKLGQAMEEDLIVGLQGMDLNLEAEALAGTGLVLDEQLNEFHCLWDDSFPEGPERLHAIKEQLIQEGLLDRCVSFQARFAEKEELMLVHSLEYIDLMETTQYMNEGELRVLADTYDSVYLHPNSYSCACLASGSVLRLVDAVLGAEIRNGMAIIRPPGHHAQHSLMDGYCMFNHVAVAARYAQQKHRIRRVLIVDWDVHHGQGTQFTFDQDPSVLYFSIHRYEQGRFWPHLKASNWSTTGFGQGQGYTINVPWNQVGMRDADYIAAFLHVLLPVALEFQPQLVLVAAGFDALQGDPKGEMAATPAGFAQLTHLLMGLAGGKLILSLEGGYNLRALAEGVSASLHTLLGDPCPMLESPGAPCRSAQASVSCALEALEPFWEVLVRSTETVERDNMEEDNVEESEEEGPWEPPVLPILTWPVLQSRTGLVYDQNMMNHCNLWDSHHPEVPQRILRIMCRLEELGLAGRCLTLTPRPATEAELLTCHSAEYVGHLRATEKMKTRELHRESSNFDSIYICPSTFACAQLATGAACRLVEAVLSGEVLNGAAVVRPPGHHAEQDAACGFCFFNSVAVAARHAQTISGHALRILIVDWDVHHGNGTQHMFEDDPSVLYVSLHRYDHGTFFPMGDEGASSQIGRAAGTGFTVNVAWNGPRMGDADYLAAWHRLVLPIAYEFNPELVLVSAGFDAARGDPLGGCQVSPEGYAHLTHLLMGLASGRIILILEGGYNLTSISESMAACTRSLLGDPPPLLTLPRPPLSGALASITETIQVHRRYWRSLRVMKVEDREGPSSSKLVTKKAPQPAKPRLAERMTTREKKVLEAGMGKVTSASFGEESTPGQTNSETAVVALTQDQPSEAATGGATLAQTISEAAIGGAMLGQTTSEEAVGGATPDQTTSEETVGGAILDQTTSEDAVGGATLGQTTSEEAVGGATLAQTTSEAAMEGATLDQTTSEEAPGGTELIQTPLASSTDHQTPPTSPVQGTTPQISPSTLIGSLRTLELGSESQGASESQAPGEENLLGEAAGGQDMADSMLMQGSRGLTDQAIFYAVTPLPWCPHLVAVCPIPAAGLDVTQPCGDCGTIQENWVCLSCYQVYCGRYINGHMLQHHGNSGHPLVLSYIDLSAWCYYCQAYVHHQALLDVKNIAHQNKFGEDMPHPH
In words: HDAC 6 Assay.

T1 sequence (P56524 655-1084 limits assumed): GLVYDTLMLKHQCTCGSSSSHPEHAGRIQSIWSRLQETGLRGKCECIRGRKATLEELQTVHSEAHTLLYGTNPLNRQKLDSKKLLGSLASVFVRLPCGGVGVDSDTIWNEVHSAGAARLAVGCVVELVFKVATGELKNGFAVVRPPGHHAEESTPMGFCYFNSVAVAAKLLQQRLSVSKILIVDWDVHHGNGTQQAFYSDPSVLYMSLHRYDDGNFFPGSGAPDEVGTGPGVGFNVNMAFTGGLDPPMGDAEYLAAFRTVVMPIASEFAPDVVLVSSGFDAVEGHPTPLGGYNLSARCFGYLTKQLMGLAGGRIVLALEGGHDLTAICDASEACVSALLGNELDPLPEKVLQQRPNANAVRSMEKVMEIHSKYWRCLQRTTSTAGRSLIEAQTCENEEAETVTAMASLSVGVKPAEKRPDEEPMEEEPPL
Sequence of HDAC 1 (Q13547 whole entry): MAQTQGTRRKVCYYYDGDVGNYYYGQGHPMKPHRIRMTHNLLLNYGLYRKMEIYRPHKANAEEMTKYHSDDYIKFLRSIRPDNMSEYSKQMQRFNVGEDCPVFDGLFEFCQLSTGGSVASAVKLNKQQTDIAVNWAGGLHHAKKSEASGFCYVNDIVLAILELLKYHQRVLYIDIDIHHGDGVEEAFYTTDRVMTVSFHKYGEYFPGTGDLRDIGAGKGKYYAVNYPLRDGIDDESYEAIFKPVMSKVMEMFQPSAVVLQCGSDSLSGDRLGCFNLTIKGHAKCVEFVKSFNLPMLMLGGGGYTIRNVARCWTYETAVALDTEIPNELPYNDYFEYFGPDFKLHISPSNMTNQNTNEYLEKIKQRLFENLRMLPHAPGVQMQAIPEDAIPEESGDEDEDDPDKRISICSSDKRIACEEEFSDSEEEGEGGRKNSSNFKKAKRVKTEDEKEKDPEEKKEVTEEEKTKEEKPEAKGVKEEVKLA

With `C[C@@H](NC(=O)c1ccc(C(=O)C(F)(F)F)s1)c1ccccc1` [Example 8, N-[(1R)-1-phenylethyl]-5-(trifluoroacetyl)thiophene-2-carboxamide], the IC50 against HDAC 1 worked out at 0.71 µM; at HDAC 4 (read-out: HDAC 4 IC50), 0.095 µM; on HDAC 6, 0.35 µM. The “selectivity for Class II HDAC (HDAC 4 and 6) over Class I (HDAC 1)” value on HDAC 4 (HDAC 4 and 6 versus HDAC 1) was “showed selectivity for Class II HDAC (HDAC 4 and 6) over Class I (HDAC 1)”.
Take `CC(/C=C/C(=O)NO)=C\[C@@H](C)C(=O)c1ccc(N(C)C)cc1` [TSA, trichostatin A]: the inhibition at 1 µM on HDAC 4 (@ 1000 nM, read-out: HDAC 4 % inh.) worked out at 42%.
In the case of `C[C@@H](NC(=O)c1ccc(C(=O)NO)s1)c1ccccc1` [N-hydroxy-N′-[(1R)-1-phenytethyl]thiophene-2,5-dicarboxamide], the IC50 is 0.006 µM against HDAC 1 and over 1 µM on HDAC 4 (not active up to the stated concentration, read-out: HDAC 4 IC50, Not active up to). The inhibition at 0.001 µM at HDAC 6 (@ 1 nM, read-out: HDAC 6 % inh.) came to 50%.

A word on the IC50: it is the concentration that inhibits the measured activity by half.
